Experimental data from the SangsterLogP compilation.
Blank lines part the entries; values can stand above or below the compound they belong to.

Columns and labels:
[1] = method code SF, from PMID: 10544519

SMILES: COC(=O)CNC(=O)Cn1c(C)nc2ccccc2c1=O
- logP: 0.44

SMILES: CCN(CC)C(=O)Cn1c(C)nc2ccccc2c1=O
- logP: 1.14

SMILES: Cc1nc2ccccc2c(=O)n1CC(=O)N1CCCCC1
- logP: 1.42

SMILES: COC(=O)Cn1c(C)nc2ccccc2c1=O
- logP [1]: 1.46

SMILES: Cc1nc2ccccc2c(=O)n1CC(=O)N1CCOCC1
- logP: 0.45

SMILES: Cc1nc2ccccc2c(=O)n1CC(=O)NCc1ccco1
- logP: 1.24

SMILES: Cc1nc2ccccc2c(=O)n1CC(=O)NCc1ccccc1
- logP: 1.78

SMILES: Cc1nc2ccccc2c(=O)n1CC(=O)O
- logP [1]: 0.08

SMILES: CCOC(=O)c1nc2ccccc2c(=O)[nH]1
- logP: 0.64

SMILES: Cc1nc2ccccc2c(=O)n1CCC(=O)O
- logP [1]: 0.64

Further lines, results first:

- logP: 1.34
SMILES: Cc1nc2ccccc2c(=O)n1CC(=O)NNc1ccccc1

- logP: 2.98
SMILES: COC(=O)c1cc(NC(=O)Cn2c(C)nc3ccccc3c2=O)cc(C(=O)OC)c1

- logP: 0.09
SMILES: Cc1nc2ccccc2c(=O)n1CC(=O)Nc1ccc(S(=O)(=O)NC(=N)N)cc1

- logP: 1.07
SMILES: Cc1nc2ccccc2c(=O)n1CC(=O)Nc1c(C)n(C)n(-c2ccccc2)c1=O

- logP: 3.53
SMILES: COC(=O)c1ccc(C(=O)OC)c(NC(=O)Cn2c(C)nc3ccccc3c2=O)c1

- logP: 2.19
SMILES: CCOc1ccc(NC(=O)Cn2c(C)nc3ccccc3c2=O)cc1

- logP: 0.7
SMILES: Cc1cc(C)nc(NS(=O)(=O)c2ccc(NC(=O)Cn3c(C)nc4ccccc4c3=O)cc2)n1
